Data from patent US4391827A, “3-(2-Hydroxy-4-(substituted)phenyl)-cycloalkanone and cycloalkanol analgesic agents and intermediates therefor” (priority 1981, dated 1983).

Experiments:
[1] = Suppression of Phenylbenzoquinone Irritant-Induced Writhing (PBQ); format: in vivo, Carworth Farms CF-1 mice; conditions: subcutaneously, mouse; for Analgesic Activity % Protection, PBQ: at 56 mg./kg.; for ED50: sc, PBQ-induced writhing, read-out: Analgesic Activity ED50, PBQ
Method: Suppression of Phenylbenzoquinone Irritant-Induced Writhing
Groups of 5 Carworth Farms CF-1 mice are pretreated subcutaneously or orally with saline, morphine, codeine or the test compound. Twenty minutes (if treated subcutaneously) or fifty minutes (if treated orally) later, each group is treated with intraperitoneal injection of phenylbenzoquinone, an irritant known to produce abdominal contractions. The mice are observed for 5 minutes for the presence or absence of writhing starting 5 minutes after the injection of the irritant. MPE50 's of the drug pretreatments in blocking writhing are ascertained.
(§1) Results of the above tests are recorded as percent maximum possible effect (%MPE). The %MPE of each group is statistically compared to the %MPE of the standard and the predrug control values. The %MPE is calculated as follows: [formula]
(§2) The following abbreviations are used in the Tables: PBQ=phenylbenzoquinone-induced writhing; TF=tail flick; HP=hot plate; RTC=rat tail clamp; and FJ=flinch jump.
(§3) Single values in the tables are ED50 's. A number followed by a second number in parentheses reports the % protection observed at a given dose. Thus, 31(56) indicates 31% protection at a dose of 56 mg./kg. of body weight.

[2] = Haffner Tail Pinch Procedure (rat tail clamp, RTC); format: in vivo, male albino rats, Charles River (Sprague-Dawley) CD strain; conditions: for ED50: sc, subcutaneously, rat tail clamp, read-out: Analgesic Activity ED50, RTC
Method: Effect on the Haffner Tail Pinch Procedure
A modification of the procedure of Haffner, Experimentelle Prufung Schmerzstillender. Deutch Med. Wschr., 55, 731-732 (1929) is used to ascertain the effects of the test compound on aggressive attacking responses elicited by a stimulus pinching the tail. Male albino rats (50-60 g.) of the Charles River (Sprague-Dawley) CD strain are used. Prior to drug treatment, and again at 0.5, 1, 2 and 3 hours after treatment, a Johns Hopkins 2.5-inch "bulldog" clamp is clamped onto the root of the rat's tail. The endpoint at each trial is clear attacking and biting behavior directed toward the offending stimulus, with the latency for attack recorded in seconds. The clamp is removed in 30 seconds if attacking has not yet occurred, and the latency of response is recorded as 30 seconds. Morphine is active at 17.8 mg./kg. (i.p.).
as §1, §2, §3

[3] = Mouse Tail Flick Analgesic Testing (TF); format: in vivo, mice; conditions: for ED50: sc; for ED50 / Analgesic Activity % Protection, TF: subcutaneously, mouse tail flick; for Analgesic Activity % Protection, TF: at 10 mg./kg.
Text: (b) Mouse Tail Flick Analgesic Testing
Tail flick testing in mice is modified after D'Amour and Smith, J. Pharmacol. Exp. Ther., 72, 74-79 (1941) using controlled high intensity heat applied to the tail. Each mouse is placed in a snug-fitting metal cylinder, with the tail protruding through one end. This cylinder is arranged so that the tail lies flat over a concealed heat lamp. At the onset of testing an aluminum flag over the lamp is drawn back, allowing the light beam to pass through the slit and focus onto the end of the tail. A timer is simultaneously activated. The latency of a sudden flick of the tail is ascertained. Untreated mice usually react within 3-4 seconds after exposure to the lamp. The end point for protection is 10 seconds. Each mouse is tested at 0.5 and 2 hours after treatment with morphine and the test compound. Morphine has an MPE50 of 3.2-5.6 mg./kg. (s.c.).
as §1, §2, §3

"Flinch-Jump" Test (FJ) = format: in vivo, male albino rats, Charles River (Sprague-Dawley) CD strain; conditions: sc; subcutaneously; rat flinch jump; read-out: Analgesic Activity ED50, FJ
Text: A modification of the flinch-jump procedure of Tenen, Psychopharmacologia, 12, 278-285 (1968) is used for determining pain thresholds. Male albino rats (175-200 g.) of the Charles River (Sprague-Dawley) CD strain are used. Prior to receiving the drug, the feet of each rat are dipped into a 20% glycerol/saline solution. The animals are then placed in a chamber and presented with a series of 1-second shocks to the feet which are delivered in increasing intensity at 30-second intervals. These intensities are 0.26, 0.39, 0.52, 0.78, 1.05, 1.31, 1.58, 1.86, 2.13, 2.42, 2.72 and 3.04 mA. Each animal's behavior is rated for the presence of (a) flinch, (b) squeak and (c) jump or rapid forward movement at shock onset. Single upward series of shock intensities are presented to each rat just prior to, and at 0.5, 2, 4 and 24 hours subsequent to drug treatment.
as §1, §2, §3

[4] = Mouse Hot Plate Analgesic Testing (HP); format: in vivo, mice; set-up: key to Analgesic Activity, HP (IA@10): IA: inactive
Method: (a) Mouse Hot Plate Analgesic Testing
The method used is modified after Woolfe and MacDonald, J. Pharmacol. Exp. Ther., 80, 300-307 (1944). A controlled heat stimulus is applied to the feet of mice on a 1/8-inch thick aluminum plate. A 250 watt reflector infrared heat lamp is placed under the bottom of the aluminum plate. A thermal regulator, connected to thermistors on the plate surface, programs the heat lamp to maintain a constant temperature of 57° C. Each mouse is dropped into a glass cylinder (61/2-inch diameter) resting on the hot plate, and timing is begun when the animal's feet touch the plate. The mouse is observed at 0.5 and 2 hours after treatment with the test compound for the first "flicking" movements of one or both hind feet, or until 10 seconds elapse without such movements. Morphine has an MPE50 =4-5.6 mg./kg. (s.c.).
as §1, §2, §3

[5] = subcutaneously, at 10 mg./kg., mouse hot plate

In the case of `CC(CCCc1ccccc1)Oc1ccc([C@H]2CCC[C@H](O)C2)c(O)c1` (stereo partly drawn), the “Analgesic Activity % Protection, PBQ” value [1] is reported as 28%.

With `CCCCCCC(C)(C)c1ccc([C@H]2CC[C@H](O)C2)c(O)c1` (relative stereo) the “Analgesic Activity % Protection, PBQ” value [1] was 36%.

In the case of `Oc1cc(OCCCCc2ccccc2)ccc1[C@H]1CCC[C@H](O)C1` (relative stereo), the ED50 [1] is reported as ≥ 56 mg/kg.

For `CCCCCCC(C)(C)c1ccc([C@]2(C)CCC[C@H](O)C2)c(O)c1` (relative stereo) [Z-3-[4-(1,1-dimethylheptyl)-2-hydroxyphenyl]-3-methylcyclohexanol], the ED50 [1] was ≥ 56 mg/kg.

In the case of `CCCCCCC(C)(C)c1ccc([C@H]2C[C@@H](O)CC[C@@H]2C)c(O)c1` (relative stereo) [cis,trans-3-[4-(1,1-dimethylheptyl)-2-hydroxyphenyl]-4-methylcyclohexanol], the ED50 [1] is reported as ≤ 1 mg/kg.

In the case of `Oc1cc(OCCCCc2ccccc2)ccc1[C@@H]1CCC[C@H](O)C1` (relative stereo) [cis-3-[2-Hydroxy-4-(4-phenylbutyloxy)phenyl]cyclohexanol], the ED50 [1] is reported as ≤ 56 mg/kg.

Work on `CCCCCCC(C)(C)c1ccc([C@@H]2CC(=O)CC[C@@H]2C)c(O)c1` (relative stereo) [cis-3-[4-(1,1-Dimethylheptyl)-2-hydroxyphenyl]-4-methylcyclohexanone] yielded an ED50 [1] of 1.51 mg/kg.

For `CCCCCCC(C)(C)c1ccc([C@@H]2CC[C@H](O)C2)c(O)c1` (relative stereo) [cis-3-[4-(1,1-Dimethylheptyl)-2-hydroxyphenyl]cyclopentanol], the “Analgesic Activity % Protection, PBQ” value [1] was 57%.

For `CCCCCCC(C)(C)c1ccc([C@@H]2CCC[C@H](O)C2)c(O)c1` (relative stereo) [cis-3-[4-(1,1-dimethylheptyl) 2-hydroxyphenyl]cyclohexanol], the ED50 [2] was 4.7 mg/kg, the ED50 [1] was 1.1 mg/kg and the ED50 [3] was 6.8 mg/kg. For the same compound, the ED50 ("Flinch-Jump" Test (FJ)) was 4 mg/kg.

In the case of `CCCCCCC(C)(C)c1ccc([C@@H]2CCCC[C@H](O)C2)c(O)c1` (relative stereo) [cis-3-[4-(1,1-dimethylheptyl)-2-hydroxyphenyl]cycloheptanol], the ED50 [2] is reported as 7.7 mg/kg, the “Analgesic Activity % Protection, HP” value [4, 5] is reported as 27% and the ED50 [1] is reported as 1.5 mg/kg. For the same compound, the “Analgesic Activity % Protection, TF” value [3] was 32% and the ED50 ("Flinch-Jump" Test (FJ)) was 3.5 mg/kg.

For `CCCCCCC(C)(C)c1ccc([C@@H]2C[C@@H](O)CC[C@H]2C)c(O)c1` (relative stereo) [trans,trans-3-[4-(1,1-dimethylheptyl)-2-hydroxyphenyl]-4-methylcyclohexanol], the ED50 [1] was 0.5 mg/kg.

`CCCCCCC(C)(C)c1ccc([C@H]2CCC[C@H](O)C2)c(O)c1` (relative stereo) [trans-3-[4-(1,1-Dimethylheptyl)-2-hydroxyphenyl]cyclohexanol] gave an ED50 [1] of 3.8 mg/kg.

For `CCCCCCC(C)(C)c1ccc([C@H]2CCCC[C@H](O)C2)c(O)c1` (relative stereo) [trans-3-[4-(1,1-dimethylheptyl)-2-hydroxyphenyl]cycloheptanol], the ED50 [2] was 5.6 mg/kg, the “Analgesic Activity, HP (IA@10)” value [4, 5] was “IA” and the ED50 [1] was 1.53 mg/kg. For the same compound, the “Analgesic Activity % Protection, TF” value [3] was 65% and the ED50 ("Flinch-Jump" Test (FJ)) was 5.4 mg/kg.

In the case of `CCCCCCC(C)(C)c1ccc(C2CCCC(=O)C2)c(OCc2ccccc2)c1` (stereo not drawn) [3-[2-Benzyloxy-4-(1,1-dimethylheptyl)phenyl]cyclohexanone], the “Analgesic Activity % Protection, PBQ” value [1] is reported as 20%.

For `CC(CCCc1ccccc1)Oc1ccc(C2CCCC(=O)C2)c(O)c1` (stereo not drawn) [3-[2-hydroxy-4-(2-(5-phenylpentyloxy))phenyl]cyclohexanone], the ED50 [1] was ≥ 56 mg/kg.

In the case of `CCCCCCC(C)(C)c1ccc(C2(C)CCCC(=O)C2)c(O)c1` (stereo not drawn) [3-[4-(1,1-Dimethylheptyl)-2-hydroxyphenyl]-3-methylcyclohexanone], the “Analgesic Activity % Protection, PBQ” value [1] is reported as 31%.

In the case of `CCCCCCC(C)(C)c1ccc(C2CCCCC(=O)C2)c(O)c1` (stereo not drawn) [3-[4-(1,1-Dimethylheptyl)-2-hydroxyphenyl]cycloheptanone], the ED50 [2] is reported as 4.4 mg/kg, the “Analgesic Activity % Protection, HP” value [4, 5] is reported as 33% and the ED50 [1] is reported as 2.15 mg/kg. For the same compound, the “Analgesic Activity % Protection, TF” value [3] was 58% and the ED50 ("Flinch-Jump" Test (FJ)) was 10.8 mg/kg.

For `CCCCCCC(C)(C)c1ccc(C2=CC(=O)CCC2)c(O)c1` [3-[4-(1,1-Dimethylheptyl)-2-hydroxyphenyl]cyclohex-2-enone], the “Analgesic Activity % Protection, PBQ” value [1] was 20%.

Compound `CCCCCCC(C)(C)c1ccc(C2CCCC(=O)C2)c(O)c1` (stereo not drawn) [3-[4-(1,1-Dimethylheptyl)-2-hydroxyphenyl]cyclohexanone] has an ED50 [1] of 4.5 mg/kg and an ED50 [3] of 15.3 mg/kg.

In the case of `CCCCCCC(C)(C)c1ccc(C2CCC(=O)C2)c(O)c1` (stereo not drawn) [3-[4-(1,1-Dimethylheptyl)-2-hydroxyphenyl]cyclopentanone], the “Analgesic Activity % Protection, PBQ” value [1] is reported as 15%.

In the case of `CN1CC[C@]23c4c5ccc(O)c4O[C@H]2[C@@H](O)C=C[C@H]3[C@H]1C5` [Morphine, reference compound], the “activity in Haffner tail pinch” value ([2]; 17.8 mg./kg. (i.p.), rat) is reported as “active”, the “MPE50, hot plate” value ([4]; s.c., mouse) is reported as 4 to 5.6 mg/kg and the “MPE50, tail flick” value ([3]; s.c., mouse) is reported as 3.2 to 5.6 mg/kg.

In the case of `CC(CCCc1ccccc1)Oc1ccc([C@@H]2CCC[C@H](O)C2)c(O)c1` (stereo partly drawn) [cis-3-[2-hydroxy-4-(2-(5-phenylpentyloxy))phenyl]cyclohexanol], the ED50 [1] is reported as 38 mg/kg.

With `O=C1CCCC(c2ccc(O)cc2O)C1` (stereo not drawn) [x=1; A+B=oxo; R2=H; R3=H; Z=O; W=H, 3-(2,4-Dihydroxyphenyl)cyclohexanone] the “Analgesic Activity % Protection, PBQ” value [1] was 32%.

In the case of `COC12CCCC(C1)c1ccc(O)cc1O2` (stereo not drawn) [x=1; A+B=oxo^(c); R2=H; R3=H; Z=O; W=H, 3-(2,4-Dihydroxyphenyl)cyclohexanone Methyl Ketal], the “Analgesic Activity % Protection, PBQ” value [1] is reported as 43%.
